Assay results as given in patent publication US20220040219A1, “COMPOSITIONS AND METHODS FOR TREATING CYSTIC FIBROSIS” (SpliSense Ltd., priority 2019, published 2022).

Molecular target: T1, CFTR del Ex23 (Homo sapiens, UniProt P13569, DEL1240-1291)
T1 construct: expressed in transfected cells; host or cells: HEK 293 cells, transient transfection with Lipofectamine 2000
Experiment: FLIPR membrane potential assay of CFTR function in HEK 293 cells transiently transfected with CFTR del Ex23
Format: cell-based
Details: forskolin 10 μM, addition of potentiator VX-770 (1 μM), FIG. 1B
Procedure: HEK cells were transiently transfected with a construct bearing a CFTR transcript having exon 23 completely deleted from it (CFTR del Ex23). Transfection was carried out using Lipofectamine 2000 transfection reagent (Invitrogen) according to the lipofectamine 2000 reagent protocol using the following lipofectamine amounts: 96 well—0.15 μl, 6 well—3 μl, […]—15 μl.
HEK cells transfected with the CFTR del Ex23 contruct were grown in 96-well (black, flat bottom; corning) plates. 48 hr post-transfection, CFTR channel function was analyzed using the FLIPR membrane potential assay as previously described (Molinski et al., 2015). Briefly, the cells were loaded with blue membrane potential dye (Molecular Devices), which can detect changes in transmembrane potential. The plate was then read in a fluorescence plate reader (BioTek Synergy H1) for baseline levels followed by CFTR stimulation using the cAMP agonist forskolin (10 μM; Sigma), DMSO vehicle was used as a negative control. CFTR-mediated depolarization of the plasma membrane was detected as an increase in fluorescence and hyperpolarization (or repolarization) as a decrease. […]
FLIPR™ (Fluorescence Imaging Plate Reader) is a functional system that allows measuring changes in membrane potential by a fluorescent indicator. […]

T1 sequence (P13569 with tags, fused parts or gaps DEL1240-1291): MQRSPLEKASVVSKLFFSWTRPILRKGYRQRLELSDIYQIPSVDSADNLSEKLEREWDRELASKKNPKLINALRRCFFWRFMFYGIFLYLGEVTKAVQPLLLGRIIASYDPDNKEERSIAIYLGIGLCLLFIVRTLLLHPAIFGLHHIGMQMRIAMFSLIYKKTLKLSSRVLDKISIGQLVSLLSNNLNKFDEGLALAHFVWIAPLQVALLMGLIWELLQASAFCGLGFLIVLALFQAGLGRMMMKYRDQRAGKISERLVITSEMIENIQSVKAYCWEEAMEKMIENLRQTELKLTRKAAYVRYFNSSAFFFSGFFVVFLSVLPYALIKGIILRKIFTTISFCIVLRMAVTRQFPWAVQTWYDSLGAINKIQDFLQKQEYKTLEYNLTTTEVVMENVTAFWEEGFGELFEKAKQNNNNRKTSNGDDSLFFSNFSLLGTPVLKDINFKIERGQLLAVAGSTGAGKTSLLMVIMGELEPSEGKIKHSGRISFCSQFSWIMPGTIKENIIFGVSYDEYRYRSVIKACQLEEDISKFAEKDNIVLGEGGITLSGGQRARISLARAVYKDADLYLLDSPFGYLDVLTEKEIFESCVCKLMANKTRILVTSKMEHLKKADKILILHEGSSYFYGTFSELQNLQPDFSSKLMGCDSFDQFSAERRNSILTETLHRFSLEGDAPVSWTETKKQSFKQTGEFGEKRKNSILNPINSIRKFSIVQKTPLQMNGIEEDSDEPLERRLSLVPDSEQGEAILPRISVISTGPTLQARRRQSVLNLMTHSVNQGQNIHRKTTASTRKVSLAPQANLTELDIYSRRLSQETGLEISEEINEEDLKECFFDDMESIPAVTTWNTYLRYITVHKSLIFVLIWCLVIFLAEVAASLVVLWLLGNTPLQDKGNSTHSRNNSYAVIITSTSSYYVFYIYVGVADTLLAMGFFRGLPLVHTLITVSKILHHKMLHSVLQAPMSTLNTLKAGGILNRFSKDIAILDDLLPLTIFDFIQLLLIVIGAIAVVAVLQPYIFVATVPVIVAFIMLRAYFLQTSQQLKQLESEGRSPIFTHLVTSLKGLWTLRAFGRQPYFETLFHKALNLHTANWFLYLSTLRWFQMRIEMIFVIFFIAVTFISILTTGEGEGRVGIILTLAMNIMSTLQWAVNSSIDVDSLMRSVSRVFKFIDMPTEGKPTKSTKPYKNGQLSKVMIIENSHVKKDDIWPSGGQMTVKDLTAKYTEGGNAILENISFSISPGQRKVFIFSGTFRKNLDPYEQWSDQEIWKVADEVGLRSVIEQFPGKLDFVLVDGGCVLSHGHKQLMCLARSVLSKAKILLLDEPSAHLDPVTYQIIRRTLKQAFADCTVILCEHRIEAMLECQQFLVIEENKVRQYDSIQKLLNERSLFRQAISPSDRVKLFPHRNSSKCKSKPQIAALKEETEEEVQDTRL

## CC(C)(C)c1cc(C(C)(C)C)c(NC(=O)c2c[nH]c3ccccc3c2=O)cc1O [VX-770, N-(2,4-Di-tert-butyl-5-hydroxyphenyl)-4-oxo-1,4-dihydroquinoline-3-carboxamide]
  channel activation: 35 % of WT
